This note sets out measurements from ChEMBL document CHEMBL5257090, “Modulation of in Vitro SARS-CoV-2 Infection by Stephania tetrandra and Its Alkaloid Constituents” (J Nat Prod, 2023).

In data set [1] the test system is HEK-293T. As to the kind of experiment: Cytotoxicity against HEK293T cells at 10 uM assessed as reduction in cell viability by CellTiter-Glo assay. Type of data set: toxicity, cell-based. The conditions noted are these: human.
Data set [2] deals with HEK-293T. Kind of data set: Cytotoxicity against HEK293T cells at 0.1 uM assessed as reduction in cell viability by CellTiter-Glo assay. Type of data set: toxicity, cell-based. The conditions noted are these: human.
Data set [3] has as its system SARS-CoV-2. Kind of data set: Antiviral activity against SARS-CoV-2 infected in HEK293T cells expressing ACE2/TMPRSS2 assessed as reduction in virus-induced cytopathic effect at 5 to 10 uM measured after 48 hrs by cellular ATP assay. Type of data set: functional, organism-based. The conditions noted are these: Severe acute respiratory syndrome coronavirus 2, dose 5-10 µM.

In data set [4] the test system is SARS-CoV-2. Kind of data set: Antiviral activity against SARS-CoV-2 infected in HEK293T cells expressing ACE2/TMPRSS2 assessed as reduction in virus-induced cytopathic effect measured after 48 hrs by cellular ATP assay. Type of data set: functional, organism-based. The conditions noted are these: Severe acute respiratory syndrome coronavirus 2, HEK-293T. In general terms: Protection from cytopathic effect is a common read-out in antiviral testing.

In data set [5] the test system is SARS-CoV-2. As to the kind of experiment: Antiviral activity against SARS-CoV-2 infected in HEK293T cells expressing ACE2/TMPRSS2 assessed as reduction in virus-induced cytopathic effect at 2.5 uM measured after 48 hrs by cellular ATP assay. Type of data set: functional, Severe acute respiratory syndrome coronavirus 2. More on the design: scale not given: the % may be the effect or the level left.

In data set [6] the test system is HEK-293T. Kind of data set: Cytotoxicity against HEK293T cells at 2.5 to 10 uM assessed as reduction in cell viability by CellTiter-Glo assay. Type of data set: toxicity, cell-based. The conditions noted are these: human, dose 2.5-10 µM. In general terms: Cellular ATP, detected with luciferase, serves as a proxy for viable cell number.
The test system of data set [7] is SARS-CoV-2. Kind of data set: Antiviral activity against SARS-CoV-2 infected in HEK293T cells expressing ACE2/TMPRSS2 assessed as reduction in virus-induced cytopathic effect at 10 uM measured after 48 hrs by cellular ATP assay. Type of data set: functional, Severe acute respiratory syndrome coronavirus 2. Details: scale not given: the % may be the effect or the level left.

Data set [8] can be described thus: Cytotoxicity against HEK293T cells assessed as reduction in cell viability by CellTiter-Glo assay. Type of data set: toxicity, cell-based, HEK-293T. The conditions noted are these: human.
For data set [9], the system named is SARS-CoV-2. As to the kind of experiment: Antiviral activity against wild-type SARS-CoV-2 USA-WA1/2020 NR-52281 infected in African green monkey Vero E6 cells expressing ACE-2/TMPRSS2 assessed as reduction in virus-induced cytopathic effect at 0.31 to 2.5 uM measured after 48 hrs by cellular ATP assay. Type of data set: functional, organism-based. Particulars: Severe acute respiratory syndrome coronavirus 2, dose 0.31-2.5 µM.

Data set [10] deals with SARS-CoV-2. As to the kind of experiment: Antiviral activity against SARS-CoV-2 delta infected in African green monkey Vero E6 cells expressing ACE-2/TMPRSS2 assessed as reduction in virus-induced cytopathic effect at 0.31 to 2.5 uM measured after 48 hrs by cellular ATP assay. The format is functional, organism-based. The conditions noted are these: Severe acute respiratory syndrome coronavirus 2, dose 0.31-2.5 µM.

Data set [11] is described as follows: Induction of phospholipidosis in HEK293T cells expressing ACE-2/TMPRSS2 at 1 uM measured after 24 hrs by DAPI staining based fluorescence microscopic analysis. The format is toxicity, cell-based. The conditions noted are these: human, hek-293t.
Data set [12] in a line: Induction of phospholipidosis in HEK293T cells expressing ACE-2/TMPRSS2 at 100 to 300 nM measured after 24 hrs by DAPI staining based fluorescence microscopic analysis. Particulars: human, hek-293t, 0.3 µM, dose 100-300 nM. The format is toxicity, cell-based.
Data set [13] is described as follows: Induction of phospholipidosis in African green monkey Vero E6 cells expressing ACE-2/TMPRSS2 at 100 to 300 nM measured after 24 hrs by DAPI staining based fluorescence microscopic analysis. The format is toxicity, cell-based. The conditions noted are these: chlorocebus sabaeus, vero c1008, 24 h, 0.3 µM, dose 100-300 nM.
A short description of data set [14]: Permeability of the compound in pH 7.4 measured after 5 hrs by LC-MS based PAMPA assay. Type of data set: ADME. Particulars: pH 7.4, 5 h. (In general: PAMPA measures passive passage across an artificial lipid membrane.)
In data set [15] the test system is HEK-293T. Kind of data set: Downregulation of ORF1ab gene expression in HEK293T cells expressing ACE-2/TMPRSS2 infected with SARS-CoV-2 assessed as fold change preincubated with compound for 2 hrs followed by viral infection and measured after 24 hrs relative to MPV. Particulars: Homo sapiens, time 26.0 hrs. Type of data set: functional, cell-based.
Data set [16] has as its system HEK-293T. Kind of data set: Downregulation of viral nucleocapsid N gene expression in HEK293T cells expressing ACE-2/TMPRSS2 infected with SARS-CoV-2 assessed as fold change preincubated with compound for 2 hrs followed by viral infection and measured after 24 hrs relative to MPV. Type of data set: functional, cell-based. The conditions noted are these: Homo sapiens, time 26.0 hrs.

Data set [17] has as its system HEK-293T. As to the kind of experiment: Up-regulation of leukocyte proliferation genes in HEK293T cells expressing ACE-2/TMPRSS2 infected with SARS-CoV-2 preincubated with compound for 2 hrs followed by viral infection and measured after 24 hrs by gene ontology analysis. Type of data set: functional, cell-based. Particulars: Homo sapiens, time 26.0 hrs.

Activity calls are given as the source filed them. No cut-off for these calls is given here. A value given as a limit tells only on which side of the number the result lay.

Consider `CCC(CC)COC(=O)[C@H](C)N[P@](=O)(OC[C@H]1O[C@@](C#N)(c2ccc3c(N)ncnn23)[C@H](O)[C@@H]1O)Oc1ccccc1`, for which the Activity result in [1] is on record as “Toxic”; in data set [2] it was “Non-Toxic”.
For `CN1[C@@H](CC(=O)c2ccccc2)CCC[C@H]1C[C@H](O)c1ccccc1`, in data set [3], the outcome was inactive.
Turning to `O=C(O)[C@H]1O[C@@H](Oc2cc3oc(-c4ccccc4)cc(=O)c3c(O)c2O)[C@H](O)[C@@H](O)[C@@H]1O`, the result in data set [3] was inactive.
By IC50 is commonly meant the concentration that inhibits the measured activity by half. As to `O=c1cc(-c2ccccc2)oc2cc(O)c(O)c(O)c12` [BAICALEIN], the IC50 in [4] was 5100 nM.
As to `CN(C)C(=O)COC(=O)Cc1ccc(OC(=O)c2ccc(NC(=N)N)cc2)cc1` [CAMOSTAT], the Activity in [5] is given as 23%; in [6], “Non-Toxic”; in data set [7], 54.5%.
A word on the CC50: it is the concentration at which the toxic effect on the cells reaches its halfway point. Take `COc1ccc2cc1Oc1ccc(cc1)C[C@H]1c3c(cc4c(c3Oc3cc5c(cc3OC)CCN(C)[C@@H]5C2)OCO4)CCN1C` [CEPHARANTHINE]: in data set [4], the IC50 was 143 nM. The CC50 in data set [8] was 2100 nM. For the same compound, the result in [9] was inactive. Further, the result in data set [10] and in [15] was Active. Further, the Activity result in data set [11] is given as “Toxic”; in data set [12], “Non-Toxic”; in data set [13] it was “Non-Toxic”. Besides, the permeability result in data set [14] is recorded as “Permeable”.
On to `COc1ccc2cc1Oc1ccc(cc1)C[C@H]1c3cc(c(OC)cc3CCN1C)Oc1c(OC)c(OC)cc3c1[C@H](C2)N(C)CC3` [FANCHININ], for which the IC50 in data set [4] is 284 nM. For the same compound, the CC50 in data set [8] was above 1000 nM. Moreover, the outcome in data set [9] was inactive. In addition, the Activity result is reported as “Toxic” in [11], “Non-Toxic” in data set [12] and “Non-Toxic” in data set [13]. Besides, in [14], the permeability result is listed as “Permeable”. The result in [16], in data set [15] and in data set [17] was Active.
Consider `COc1ccc2cc1Oc1ccc(cc1)C[C@H]1c3cc(c(OC)cc3CCN1C)Oc1c(O)c(OC)cc3c1[C@H](C2)N(C)CC3` [FANGCHINOLINE], for which the IC50 in data set [4] stood at 193 nM. For the same compound, in data set [8], the 50% cytotoxic concentration (CC50) was above 1000 nM. The outcome in data set [9] was inactive. Moreover, the Activity entry is “Toxic” in data set [11], “Non-Toxic” in [12] and “Non-Toxic” in [13]. Further, the result in data set [15] and in data set [17] was Active.
